From ChEMBL document CHEMBL3885881, “DrugMatrix”

Species: Rattus norvegicus
Experiment: DrugMatrix - Regimen: Daily Repeat
Type: toxicity, organism-based, Sprague-Dawley
Design: regimen Daily Repeat, gender Male, age 6-8 weeks
Details: in vivo, po, route oral GAVAGE, […]; for ABSOLUTE BASOPHIL / ABSOLUTE EOSINOPHIL / ABSOLUTE LYMPHOCYTE / ABSOLUTE MONOCYTE / ABSOLUTE SEGMENTED NEUTROPHIL / BASOPHIL / EOSINOPHIL / ERYTHROCYTE COUNT / HEMATOCRIT / HEMOGLOBIN / LEUKOCYTE COUNT / LYMPHOCYTE / MEAN CORPUSCULAR HEMOGLOBIN / MEAN CORPUSCULAR HEMOGLOBIN CONCENTRATION / MEAN CORPUSCULAR VOLUME / MONOCYTE / NEUTROPHIL / NUCLEATED RED BLOOD CELLS / PLATELET COUNT: tissue Blood; for ALANINE AMINOTRANSFERASE / ALBUMIN / ALKALINE PHOSPHATASE / ASPARTATE AMINOTRANSFERASE / BLOOD UREA NITROGEN / CARBON DIOXIDE / CHLORIDE / CHOLESTEROL / CREATINE PHOSPHOKINASE / CREATININE / GLUCOSE / LACTATE DEHYDROGENASE / LIPASE / PHOSPHORUS / POTASSIUM / SODIUM / TOTAL BILIRUBIN / TOTAL PROTEIN / URIC ACID: tissue Plasma
[1] = 2000 mg/kg, 72 h, dose level High, time 3 day
[2] = 2000 mg/kg, 120 h, dose level High, time 5 day
[3] = 72 h, dose 0.33 mg/Kg, dose level Low, time 3 day
[4] = 120 h, dose 0.33 mg/Kg, dose level Low, time 5 day

## COc1ccc2[nH]cc(CCNC(C)=O)c2c1 [MELATONIN]
[1]
  ABSOLUTE BASOPHIL: 0 CELLS/uL
  ABSOLUTE EOSINOPHIL: 23.67 CELLS/uL
  ABSOLUTE LYMPHOCYTE: 9249.33 CELLS/uL
  ABSOLUTE MONOCYTE: 250.67 CELLS/uL
  ABSOLUTE SEGMENTED NEUTROPHIL: 1876.33 CELLS/uL
  BASOPHIL: 0%
  EOSINOPHIL: 0.33%
  ERYTHROCYTE COUNT: 5.38 x10E6/uL
  HEMATOCRIT: 32.93%
  HEMOGLOBIN: 13.5 G/DL
  LEUKOCYTE COUNT: 11.4 x10E3/uL
  LYMPHOCYTE: 82.33%
  MEAN CORPUSCULAR HEMOGLOBIN: 25.17 pg
  MEAN CORPUSCULAR HEMOGLOBIN CONCENTRATION: 41.03 G/DL
  MEAN CORPUSCULAR VOLUME: 61.27 fL
  MONOCYTE: 2%
  NEUTROPHIL: 15.33%
  NUCLEATED RED BLOOD CELLS: 0 /100WBC
  PLATELET COUNT: 1209.67 x10E3/uL
  ALANINE AMINOTRANSFERASE: 115 u/L
  ALBUMIN: 3.3 G/DL
  ALKALINE PHOSPHATASE: 505.67 u/L
  ASPARTATE AMINOTRANSFERASE: 128.33 u/L
  BLOOD UREA NITROGEN: 15 mg/dL
  CARBON DIOXIDE: 25.67 mmol/L
  CHLORIDE: 100.33 MEQ/L
  CHOLESTEROL: 84 mg/dL
  CREATINE PHOSPHOKINASE: 757.33 u/L
  CREATININE: 0.38 mg/dL
  GLUCOSE: 155 mg/dL
  LACTATE DEHYDROGENASE: 369.33 u/L
  LIPASE: 11.67 u/L
  PHOSPHORUS: 13.07 mg/dL
  POTASSIUM: 6.08 MEQ/L
  SODIUM: 140.4 MEQ/L
  TOTAL BILIRUBIN: 0.5 mg/dL
  TOTAL PROTEIN: 4.6 G/DL
  URIC ACID: 1.43 mg/dL
[2]
  ABSOLUTE BASOPHIL: 0 CELLS/uL
  ABSOLUTE EOSINOPHIL: 0 CELLS/uL
  ABSOLUTE LYMPHOCYTE: 18071 CELLS/uL
  ABSOLUTE MONOCYTE: 251 CELLS/uL
  ABSOLUTE SEGMENTED NEUTROPHIL: 1211.33 CELLS/uL
  BASOPHIL: 0%
  EOSINOPHIL: 0%
  ERYTHROCYTE COUNT: 6.07 x10E6/uL
  HEMATOCRIT: 38.13%
  HEMOGLOBIN: 15.13 G/DL
  LEUKOCYTE COUNT: 19.53 x10E3/uL
  LYMPHOCYTE: 92.67%
  MEAN CORPUSCULAR HEMOGLOBIN: 24.9 pg
  MEAN CORPUSCULAR HEMOGLOBIN CONCENTRATION: 39.7 G/DL
  MEAN CORPUSCULAR VOLUME: 62.77 fL
  MONOCYTE: 1.33%
  NEUTROPHIL: 6%
  NUCLEATED RED BLOOD CELLS: 0 /100WBC
  PLATELET COUNT: 1278.33 x10E3/uL
  ALANINE AMINOTRANSFERASE: 124.67 u/L
  ALBUMIN: 3.73 G/DL
  ALKALINE PHOSPHATASE: 553.33 u/L
  ASPARTATE AMINOTRANSFERASE: 154.67 u/L
  BLOOD UREA NITROGEN: 19 mg/dL
  CARBON DIOXIDE: 32 mmol/L
  CHLORIDE: 100.33 MEQ/L
  CHOLESTEROL: 99 mg/dL
  CREATINE PHOSPHOKINASE: 788.67 u/L
  CREATININE: 0.24 mg/dL
  GLUCOSE: 136 mg/dL
  LACTATE DEHYDROGENASE: 320.67 u/L
  LIPASE: 12.33 u/L
  PHOSPHORUS: 11.03 mg/dL
  POTASSIUM: 6.53 MEQ/L
  SODIUM: 142.13 MEQ/L
  TOTAL BILIRUBIN: 0.4 mg/dL
  TOTAL PROTEIN: 5.07 G/DL
  URIC ACID: 1.2 mg/dL
[3]
  ABSOLUTE BASOPHIL: 0 CELLS/uL
  ABSOLUTE EOSINOPHIL: 0 CELLS/uL
  ABSOLUTE LYMPHOCYTE: 12175.67 CELLS/uL
  ABSOLUTE MONOCYTE: 180.67 CELLS/uL
  ABSOLUTE SEGMENTED NEUTROPHIL: 1643.67 CELLS/uL
  BASOPHIL: 0%
  EOSINOPHIL: 0%
  ERYTHROCYTE COUNT: 5.39 x10E6/uL
  HEMATOCRIT: 34.47%
  HEMOGLOBIN: 13.5 G/DL
  LEUKOCYTE COUNT: 14 x10E3/uL
  LYMPHOCYTE: 87.33%
  MEAN CORPUSCULAR HEMOGLOBIN: 25.1 pg
  MEAN CORPUSCULAR HEMOGLOBIN CONCENTRATION: 39.17 G/DL
  MEAN CORPUSCULAR VOLUME: 64.03 fL
  MONOCYTE: 1.33%
  NEUTROPHIL: 11.33%
  NUCLEATED RED BLOOD CELLS: 0 /100WBC
  PLATELET COUNT: 1125.33 x10E3/uL
  ALANINE AMINOTRANSFERASE: 65 u/L
  ALBUMIN: 4 G/DL
  ALKALINE PHOSPHATASE: 447.33 u/L
  ASPARTATE AMINOTRANSFERASE: 76.67 u/L
  BLOOD UREA NITROGEN: 13.33 mg/dL
  CARBON DIOXIDE: 31 mmol/L
  CHLORIDE: 102 MEQ/L
  CHOLESTEROL: 74.33 mg/dL
  CREATINE PHOSPHOKINASE: 191.33 u/L
  CREATININE: 0.26 mg/dL
  GLUCOSE: 163.33 mg/dL
  LACTATE DEHYDROGENASE: 156.67 u/L
  LIPASE: 10.33 u/L
  PHOSPHORUS: 11.6 mg/dL
  POTASSIUM: 6.23 MEQ/L
  SODIUM: 142.1 MEQ/L
  TOTAL BILIRUBIN: 0.2 mg/dL
  TOTAL PROTEIN: 5.03 G/DL
  URIC ACID: 1.47 mg/dL
[4]
  ABSOLUTE BASOPHIL: 0 CELLS/uL
  ABSOLUTE EOSINOPHIL: 0 CELLS/uL
  ABSOLUTE LYMPHOCYTE: 12476.67 CELLS/uL
  ABSOLUTE MONOCYTE: 229.67 CELLS/uL
  ABSOLUTE SEGMENTED NEUTROPHIL: 1393.67 CELLS/uL
  BASOPHIL: 0%
  EOSINOPHIL: 0%
  ERYTHROCYTE COUNT: 5.39 x10E6/uL
  HEMATOCRIT: 32.43%
  HEMOGLOBIN: 13.13 G/DL
  LEUKOCYTE COUNT: 14.1 x10E3/uL
  LYMPHOCYTE: 88.33%
  MEAN CORPUSCULAR HEMOGLOBIN: 24.4 pg
  MEAN CORPUSCULAR HEMOGLOBIN CONCENTRATION: 40.53 G/DL
  MEAN CORPUSCULAR VOLUME: 60.23 fL
  MONOCYTE: 1.67%
  NEUTROPHIL: 10%
  NUCLEATED RED BLOOD CELLS: 0 /100WBC
  PLATELET COUNT: 1131.67 x10E3/uL
  ALANINE AMINOTRANSFERASE: 56.33 u/L
  ALBUMIN: 4.1 G/DL
  ALKALINE PHOSPHATASE: 363.67 u/L
  ASPARTATE AMINOTRANSFERASE: 76 u/L
  BLOOD UREA NITROGEN: 16 mg/dL
  CARBON DIOXIDE: 30 mmol/L
  CHLORIDE: 102 MEQ/L
  CHOLESTEROL: 64 mg/dL
  CREATINE PHOSPHOKINASE: 170.33 u/L
  CREATININE: 0.24 mg/dL
  GLUCOSE: 163 mg/dL
  LACTATE DEHYDROGENASE: 89.33 u/L
  LIPASE: 10.67 u/L
  PHOSPHORUS: 10.7 mg/dL
  POTASSIUM: 5.96 MEQ/L
  SODIUM: 142.07 MEQ/L
  TOTAL BILIRUBIN: 0.17 mg/dL
  TOTAL PROTEIN: 5.53 G/DL
  URIC ACID: 1.3 mg/dL
